Test results published in patent US20240189311A1, “Combination Therapy of Obicetrapib and Ezetimibe for Use in Statin Intolerant Patients Suffering from Hyperlipidemia or Mixed Dyslipidaemia” (NEWAMSTERDAM PHARMA B.V., priority 2021, published 2024).

Columns and labels:
apolipoprotein E (ApoE) = assay: Phase 2 study: ApoE; type: in vivo, human; details: Day 57
Description: (§1) Up to 2 weeks after the Screening Visit, participants will return to the site on Day 1 (Visit 2) to be randomized and begin treatment. Approximately 100 eligible participants (25 participants per treatment group) will be randomized in a 1:1:1:1 ratio to 1 of the following treatment groups: • Combination therapy: 5 mg obicetrapib+10 mg ezetimibe; • Obicetrapib monotherapy: 5 mg obicetrapib+placebo ezetimibe; • Ezetimibe monotherapy: placebo obicetrapib+10 mg ezetimibe; or • Placebo: placebo obicetrapib+placebo ezetimibe.
(§2) Similar MMRM models were used for the exploratory efficacy endpoints. The proportion of participants at Day 57 that achieved LDL-C<2.6 mmol/L (<100 mg/dL), LDL-C<1.8 mmol/L (<70 mg/dL), and LDL-C<1.3 mmol/L (<50 mg/dL) were examined through Logistic Regression Models for binary variables with covariates of the treatment groups and the baseline variable.

[1] = test system: high-density lipoprotein cholesterol (HDL-C); assay: Phase 2 study: HDL-C; type: in vivo, human; details: Day 57
Description: as §1, §2

CETP = molecular target: T1, CETP (Homo sapiens, UniProt P11597); details: 5 mg obicetrapib dose; healthy subjects and patients; multiple dose; cited from earlier work
T1 construct: from tissue; host or cells: plasma of the dosed clinical-study subjects (endogenous CETP)
T1 sequence (P11597 18-493): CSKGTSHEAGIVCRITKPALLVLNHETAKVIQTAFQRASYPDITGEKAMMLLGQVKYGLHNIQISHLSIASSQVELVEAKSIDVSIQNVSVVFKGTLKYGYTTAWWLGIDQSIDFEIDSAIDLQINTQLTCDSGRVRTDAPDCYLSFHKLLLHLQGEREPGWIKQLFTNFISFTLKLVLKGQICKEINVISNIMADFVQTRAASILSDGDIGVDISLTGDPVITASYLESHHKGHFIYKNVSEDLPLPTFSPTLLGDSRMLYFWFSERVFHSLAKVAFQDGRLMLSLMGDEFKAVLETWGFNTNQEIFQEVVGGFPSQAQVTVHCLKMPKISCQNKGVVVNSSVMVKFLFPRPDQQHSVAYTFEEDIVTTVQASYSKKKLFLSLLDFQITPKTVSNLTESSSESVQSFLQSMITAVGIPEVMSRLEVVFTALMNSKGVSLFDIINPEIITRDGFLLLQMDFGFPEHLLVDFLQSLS

apolipoprotein B (ApoB) = assay: Phase 2 study of obicetrapib and ezetimibe in mild dyslipidaemia: ApoB; type: in vivo, human
Source text: (§3) Study drugs will be administered by the participant orally and once daily on Days 1 through 57. Study drugs should be administered at approximately the same time each morning, with food. On days with visits scheduled, study drugs should be administered with food following all fasted blood samples. If a participant forgets to take study drug on a given day, they should take the next dose as normal and should not take a double dose to make up for the forgotten dose.
as §1
Similar MMRM models were developed to examine the percent change from Day 1 to Day 57 in LDL-C (for other pairwise treatment group comparisons beside the analysis specified for the primary efficacy endpoint, using the Friedewald formula) or ApoB. In order to maintain the overall Type 1 error rate, the secondary efficacy endpoints were tested sequentially at the 0.05 significance level according to the pre-specified order of hierarchy. This applied to the following analyses: • Percent change from Day 1 to Day 57 in LDL-C for the obicetrapib monotherapy group compared to the placebo group; • Percent change from Day 1 to Day 57 in ApoB for the combination therapy group compared to the placebo group; • Percent change from Day 1 to Day 57 in ApoB for the obicetrapib monotherapy group compared to the placebo group; • Percent change from Day 1 to Day 57 in LDL-C for combination therapy group compared to the ezetimibe monotherapy group; • Percent change from Day 1 to Day 57 in LDL-C for the obicetrapib monotherapy group compared to the ezetimibe monotherapy group; • Percent change from Day 1 to Day 57 in LDL-C, for the ezetimibe monotherapy group compared to the placebo group; and • Percent change from Day 1 to Day 57 in ApoB for the combination therapy group compared to the ezetimibe monotherapy group.

HDL-C = details: cited from earlier work
[2] = Phase 2 study: safety and tolerability (adverse events); type: in vivo, human
Source text: The Safety Population included all participants who received at least 1 dose of any study drug. Treatment classification was based on the actual treatment received. The Safety Population was the primary population used for the safety analyses.
The Safety Population was the primary population for the safety analyses. All safety endpoints are summarized descriptively. No statistical inference was applied to the safety endpoints.
AEs were categorized by primary system organ class (SOC) and preferred term (PT) as coded using the Medical Dictionary for Regulatory Activities (version 23.0) category designations. Summaries of AEs, including the count and percentage of participants who experienced an AE, are provided.
An overview of treatment-emergent adverse events (TEAEs) is provided, including counts and percentages of participants (and event counts).
Listings are presented specifically for TEAEs, treatment-emergent serious adverse events (TESAEs), and TEAEs leading to discontinuation of study drug.

[3] = Phase 2 study: pharmacokinetics of obicetrapib; type: in vivo, human; details: by 8 weeks after long-term daily dosing
Source text: Plasma obicetrapib concentrations will be summarized with descriptive statistics based on the PK Population. Exploration of any relationships with obicetrapib exposure will be performed, as appropriate.
The PK Population included all participants in the mITT Population who had sufficient blood samples collected for valid estimation of PK parameters.

[4] = test system: low-density lipoprotein cholesterol (LDL-C); assay: Phase 2 study of obicetrapib and ezetimibe in mild dyslipidaemia: LDL-C by Friedewald formula; type: in vivo, human
Source text: as §3, §1
LDL-C level was collected using the following 2 approaches: • 1. At each scheduled visit, LDL-C level was calculated using the Friedewald formula; and • 2. In addition, at baseline (Day 1) and at the end of the 8-week Treatment Period (Day 57), LDL-C was measured for all participants by preparative ultracentrifugation (PUC). Primary Efficacy Endpoint Primary analysis
The primary efficacy analysis of the percent change from Day 1 to Day 57 in LDL-C was performed using a mixed model for repeated measures (MMRM) approach. The analysis included fixed effects for treatment, visit, and treatment-by-visit interaction, along with a covariate of the baseline value as a continuous covariate. Randomization was stratified by categories of LDL-C value (<3.5 mmol/L [<135 mg/dL] or >3.5 mmol/L [≥135 mg/dL]) only to ensure similar distribution of LDL-C across all treatment groups; however, the MMRM model included the original scale of the LDL-C value as a continuous covariate. The Restricted Maximum Likelihood estimation approach was used with an unstructured covariance matrix. The least squares (LS) means, standard errors, and 2-sided 95% confidence intervals (CIs) for each treatment group, for the pairwise comparisons of the combination therapy, obicetrapib monotherapy, and ezetimibe monotherapy to placebo, and for the pairwise comparisons of combination therapy and obicetrapib monotherapy versus ezetimibe monotherapy are provided. The treatment comparison was performed using a 2-sided test at the α=0.05 level of significance.
as §2
This study was a placebo-controlled, double-blind, randomized Phase 2 study in participants with mild dyslipidemia to evaluate the efficacy, safety, and tolerability of obicetrapib and ezetimibe combination therapy. The primary efficacy endpoint was percent change from Day 1 to Day 57 in LDL-C for the obicetrapib 5 mg+ezetimibe 10 mg group compared to the placebo group.

LDL-C = details: cited from earlier work
[5] = test system: non-high-density lipoprotein cholesterol (non-HDL-C); assay: Phase 2 study: non-HDL-C; type: in vivo, human; details: Day 57
Description: as §1, §2

[6] = mITT population, mild dyslipidaemia, oral once daily, Day 57
[7] = mITT population, oral once daily, baseline to Day 57
[8] = previous multiple-dose clinical studies, 5 mg obicetrapib dose, healthy subjects and patients

Q: For `CCOC(=O)N1c2ccc(C(F)(F)F)cc2[C@@H](N(Cc2cc(C(F)(F)F)cc(C(F)(F)F)c2)c2ncc(OCCCC(=O)O)cn2)C[C@H]1C` [Obicetrapib 5 mg], which “Percent change from baseline in ApoE compared to placebo (in words)” value (apolipoprotein E (ApoE)) is on record?
A: The value was “significant increases”.

Q: And the “Percent change from baseline in HDL-C compared to placebo (in words)” value [1]?
A: The value was “significant increases”.

Q: And the “CETP activity and concentrations (in words)” value (CETP)?
A: The value was “effectively reduced”.

Q: And the “Percent change from baseline in ApoB compared to placebo (in words)” value (apolipoprotein B (ApoB); Day 57, compared to placebo)?
A: The value was “significant reductions”.

Q: And the “ApoB at Day 57, mean” value (apolipoprotein B (ApoB); [6])?
A: Its value is 78.3 mg/dL.

Q: And the “ApoB at Day 57, median” value (apolipoprotein B (ApoB); [6])?
A: The value was 75.0 mg/dL.

Q: What about the “Change from baseline to Day 57 in ApoB, mean” value (apolipoprotein B (ApoB); [7]) of the same compound?
A: Its value is -22.6 mg/dL.

Q: What about the “Change from baseline to Day 57 in ApoB, median” value (apolipoprotein B (ApoB); [7]) of the same compound?
A: The value was -24.0 mg/dL.

Q: And the “Percent change from baseline to Day 57 in ApoB, mean” value (apolipoprotein B (ApoB); [7])?
A: The value was −22.15%.

Q: And the “Percent change from baseline to Day 57 in ApoB, median” value (apolipoprotein B (ApoB); [7])?
A: The value was −23.50%.

Q: What about the “Effect on HDL cholesterol concentration (in words)” value (HDL-C; Phase II trial TULIP, mono-therapy and in combination with statins) of the same compound?
A: The value was “increased considerably”.

Q: And the “Effect on HDL-C levels (in words)” value (HDL-C; [8])?
A: The value was “increased”.

Q: What about the “Safety and tolerability (in words)” value ([2]; 8 weeks of treatment, oral once daily) of the same compound?
A: Its value is “generally safe and well tolerated”.

Q: And the “Participants who experienced at least 1 TEAE, number” value ([2]; Safety Population)?
A: Its value is 4 participants.

Q: And the “Participants who experienced at least 1 TEAE, percentage” value ([2]; Safety Population)?
A: Its value is 14.3%.

Q: And the “Participants who experienced at least 1 study drug-related TEAE, number” value ([2]; Safety Population)?
A: Its value is 1 participants.

Q: And the “Participants who experienced at least 1 study drug-related TEAE, percentage” value ([2]; Safety Population)?
A: The value was 3.6%.

Q: And the “Participants with a TEAE with a maximum severity of moderate, number” value ([2]; Safety Population)?
A: The value was 1 participants.

Q: And the “Participants with a TEAE with a maximum severity of moderate, percentage” value ([2]; Safety Population)?
A: Its value is 3.6%.

Q: What about the “Elimination of obicetrapib (in words)” value [3] of the same compound?
A: The value was “almost complete elimination”.

Q: And the “Number of participants that achieved LDL-C<70 mg/dL by Friedewald formula” value ([4]; Day 57)?
A: The value was 7 participants.

Q: What about the “Number of participants that achieved LDL-C<100 mg/dL by Friedewald formula” value ([4]; Day 57) of the same compound?
A: The value was 16 participants.

Q: And the “Percentage of participants that achieved LDL-C<70 mg/dL by Friedewald formula” value ([4]; Day 57)?
A: Its value is 25.0%.

Q: What about the “Percentage of participants that achieved LDL-C<100 mg/dL by Friedewald formula” value ([4]; Day 57) of the same compound?
A: The value was 57.1%.

Q: And the “LDL-C by Friedewald formula at Day 57, mean” value [4, 6]?
A: Its value is 87.0 mg/dL.

Q: And the “LDL-C by Friedewald formula at Day 57, median” value [4, 6]?
A: Its value is 87.0 mg/dL.

Q: What about the “Change from baseline to Day 57 in LDL-C by Friedewald formula, mean” value [4, 7] of the same compound?
A: The value was -39.5 mg/dL.

Q: And the “Change from baseline to Day 57 in LDL-C by Friedewald formula, median” value [4, 7]?
A: The value was -41.0 mg/dL.

Q: And the “Percent change from baseline to Day 57 in LDL-C by Friedewald formula, mean” value [4, 7]?
A: Its value is −31.88%.

Q: And the “Percent change from baseline to Day 57 in LDL-C by Friedewald formula, median” value [4, 7]?
A: The value was −34.40%.

Q: What about the “Effect on LDL cholesterol concentrations (in words)” value (LDL-C; Phase II trial TULIP, 10 mg and 5 mg obicetrapib as monotherapy) of the same compound?
A: The value was “able to reduce LDL cholesterol concentrations”.

Q: What about the “Effect on LDL-C levels (in words)” value (LDL-C; [8]) of the same compound?
A: Its value is “decreased”.

Q: And the “Percent change from baseline in non-HDL-C compared to placebo (in words)” value [5]?
A: Its value is “significant reductions”.
